Laboratory results published in US11964021B2, “Bacterially derived, intact minicells for delivery of therapeutic agents to brain tumors” (EnGeneIC Molecular Delivery Pty Ltd, priority 2011, dated 2024).

Columns and labels:
[1] = kinetics, FIG. 2A of MacDiarmid et al. Cancer Cell (2007); cited from earlier work
[2] = test system: human brain tumor cell line U87-MG; experiment: MTS cell proliferation assay, doxorubicin sensitivity, human cells; type: cell-based; details: 1.7 nM to 8,600 nM, 72 hours
Experimental: (§1) Canine brain tumor cells BCD-1, -8, -9 and J3T and human brain tumor cell line U87-MG were seeded into 96 well plates at 5×10^3 cells per well. Cells were incubated overnight at 37° C., 5% CO2.
(§2) Doxorubicin was added to cells in […], of relevant media containing serum at concentrations ranging from 1.7 nM to 8,600 nM and incubated for 72 hours.
(§3) To measure the cytotoxic effect of Doxorubicin an MTS cell proliferation assay was performed. To each well 20 uL of MTS solution (CellTitre 96® Aqueous One MTS reagent—Promega) was added and incubated in the dark for 30 minutes. Absorbance was read at a wavelength of 490 nm. Data was analysed in Prism GraphPad (La Jolla, CA, USA) using non-linear regression and a 4-parameter curve fit.

[3] = test system: Canine brain tumor cells BCD-1, -8, -9 and J3T; experiment: MTS cell proliferation assay, doxorubicin sensitivity, canine cells; type: cell-based; details: 1.7 nM to 8,600 nM, 72 hours
Experimental: as §1, §2, §3

| SMILES | leakage of drug out of intact minicells once packaged [1] | sensitivity of cells to doxorubicin [2] | sensitivity of cells to doxorubicin [3] |
| --- | --- | --- | --- |
| N.N.[Cl][Pt][Cl] [cisplatin, Cisplatin] | did not leak out |  |  |
| COc1cccc2c1C(=O)c1c(O)c3c(c(O)c1C2=O)C[C@@](O)(C(=O)CO)C[C@@H]3O[C@H]1C[C@H](N)[C@H](O)[C@H](C)O1 [doxorubicin, Doxorubicin] | did not leak out | equally sensitive | equally sensitive |
